# Measurements as given in patent US6627621B2, “Neutrophil function inhibitors” (Dainichieseika Color & Chemicals Mfg. Co., Ltd., priority 2001, dated 2003).
# What was measured:
# Assay type in all cases: cell-based, Guinea pig
# neutrophils [1] = experiment: Emigrating ability of neutrophils (Boyden's chamber, C5a as emigrating factor); settings: 0.01, 0.1 and 1 mM, 37° C. 20 minutes preincubation, 3 μm membrane, FIG. 5
# Procedure: A glycogen solution (0.17% glycogen-0.9% NaCl solution) was administered into the abdominal cavity of a Guinea pig. About 15 hours later, the abdominal cavity was washed with a 0.4% sodium citrate-0.9% NaCl solution to collect an exudate. The exudate contained neutrophils of 95% or higher purity. After the abdominal cavity exudate was washed twice with phosphate buffer (pH 7.4), the neutrophils were suspended in phosphate buffer (pH 7.4) to prepare a neutrophil suspension. The emigrating ability of neutrophils was measured by using as an emigrating factor the component factor C5 a generated by reacting fresh serum with a yeast. Described specifically, glucosamine hydrochloride was added at 0.01 mM, 0.1 mM and 1 mM to aliquots of a neutrophil suspension (neutrophil concentration: 3×10^6 cells/mL), respectively, followed by incubation at 37° C. for 20 minutes. The reaction mixtures were separately placed in Boyden's chambers each of which was equipped with a nitrocellulose membrane of 3 μm in pore size, and were then incubated at 37° C. for 20 minutes. After the reaction, distances over which neutrophils had emigrated were measured under a microscope.
# neutrophils [2] = experiment: Extracellular release of granular enzyme lysozyme from neutrophils; settings: 0.01, 0.1 and 1 mM, 37° C. 20 minutes preincubation; OPZ (1:6) 30 minutes; FIG. 4
# Procedure: A glycogen solution (0.17% glycogen-0.9% NaCl solution) was administered into the abdominal cavity of a Guinea pig. About 15 hours later, the abdominal cavity was washed with a 0.4% sodium citrate-0.9% NaCl solution to collect an exudate. The exudate contained neutrophils of 95% or higher purity. After the abdominal cavity exudate was washed twice with phosphate buffer (pH 7.4), the neutrophils were suspended in phosphate buffer (pH 7.4) to prepare a neutrophil suspension. Inhibiting effects of a glucosamine salt on neutrophil functions were investigated with respect to the generation of active oxygen, ingesting effect and extra-cellular releasing effect on granular components by methods to be described subsequently herein. Data are each shown as a mean ± standard deviation S.D. of three or more samples. Further, a test was conducted using an AVOVA. Glucosamine hydrochloride was added at 0.01 mM, 0.1 mM and 1 mM to aliquots of a neutrophil suspension (neutrophil concentration: 10^7 cells/mL), respectively, followed by incubation at 37° C. for 20 minutes. […] The reaction mixture was centrifuged, the supernatant was collected, and then, the activity of the granular enzyme, lysozyme, released to the outside of cells was measured by calorimetrically quantitating dissolution of Micrococcus lysodeikticus cells.
# neutrophils [3] = experiment: Generation of active oxygen by neutrophils (cytochrome c reduction method); settings: 0.01, 0.1 and 1 mM, 37° C. 20 minutes preincubation
# Procedure: A glycogen solution (0.17% glycogen-0.9% NaCl solution) was administered into the abdominal cavity of a Guinea pig. About 15 hours later, the abdominal cavity was washed with a 0.4% sodium citrate-0.9% NaCl solution to collect an exudate. The exudate contained neutrophils of 95% or higher purity. After the abdominal cavity exudate was washed twice with phosphate buffer (pH 7.4), the neutrophils were suspended in phosphate buffer (pH 7.4) to prepare a neutrophil suspension.
# Inhibiting effects of a glucosamine salt on neutrophil functions were investigated with respect to the generation of active oxygen, ingesting effect and extra-cellular releasing effect on granular components by methods to be described subsequently herein. Data are each shown as a mean ± standard deviation S.D. of three or more samples. Further, a test was conducted using an AVOVA.
# Glucosamine hydrochloride was added at 0.01 mM, 0.1 mM and 1 mM to aliquots of a neutrophil suspension (neutrophil concentration: 10^6 cells/mL), respectively, followed by incubation at 37° C. for 20 minutes. To each of the reaction mixtures, N-formyl-1-methionyl-1-leucyl-1-phenylalanine (FMLP; 10^−7 M) or opsonized zymosan (OPZ; count ratio of OPZ to neutrophils: 1:6) was added as an emigrating factor to stimulate neutrophils for 30 minutes. Generated active oxygen was measured by the cytochrome c reduction method. […]
# neutrophils [4] = experiment: Ingesting ability of neutrophils (ingestion of opsonized zymosan, ingestion index); settings: 0.01, 0.1 and 1 mM, 37° C. 20 minutes preincubation; OPZ (1:6) 30 minutes; FIG. 3
# Procedure: A glycogen solution (0.17% glycogen-0.9% NaCl solution) was administered into the abdominal cavity of a Guinea pig. About 15 hours later, the abdominal cavity was washed with a 0.4% sodium citrate-0.9% NaCl solution to collect an exudate. The exudate contained neutrophils of 95% or higher purity. After the abdominal cavity exudate was washed twice with phosphate buffer (pH 7.4), the neutrophils were suspended in phosphate buffer (pH 7.4) to prepare a neutrophil suspension. Inhibiting effects of a glucosamine salt on neutrophil functions were investigated with respect to the generation of active oxygen, ingesting effect and extra-cellular releasing effect on granular components by methods to be described subsequently herein. Data are each shown as a mean ± standard deviation S.D. of three or more samples. Further, a test was conducted using an AVOVA. Glucosamine hydrochloride was added at 0.01 mM, 0.1 mM and 1 mM to aliquots of a neutrophil suspension (neutrophil concentration: 10^7 cells/mL), respectively, followed by incubation at 37° C. for 20 minutes. To each of the reaction mixtures, opsonized zymosan (OPZ; count ratio of OPZ to neutrophils: 1:6) was added, followed by a reaction for 30 minutes. The count of the yeast ingested by neutrophils was determined under a microscope, and was expressed in terms of an ingestion index.
compound,measurement,setting,value
"Cl.N[C@H]1C(O)O[C@H](CO)[C@@H](O)[C@@H]1O (some centres unmarked) [glucosamine hydrochloride, Glucosamine hydrochloride]",emigrating ability of neutrophils,neutrophils [1],inhibited in a concentration-dependent manner
same,extracellular release of the granular enzyme (lysozyme) from neutrophils by opsonized zymosan,neutrophils [2],significantly inhibited
same,formation of active oxygen by FMLP,"neutrophils [3]; FMLP 10^-7 M stimulation 30 minutes, FIG. 1",inhibited in a concentration-dependent manner
same,formation of active oxygen by opsonized zymosan,"neutrophils [3]; OPZ (1:6) stimulation 30 minutes, FIG. 2",inhibited in a concentration-dependent manner
same,ingestion of opsonized zymosan by neutrophils,neutrophils [4],inhibited in a concentration-dependent manner
